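How tested: cells in 96-well plates exposed to compound for 48 hours at five concentrations. Abbreviation: GI50, concentration required for 50% inhibition of growth.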 The source made the active and inactive calls. Cut-off read from the data, not from the text of the source: active = GI50 up to about 1.1 µM and inactive = higher.
What was measured:
Test in all cases: inhibition of tumour cell growth, NCI panel, 48 h
[1] = test system: A498
[2] = test system: A549
[3] = test system: CAKI-1
[4] = test system: CCRF-CEM
[5] = test system: COLO 205
[6] = test system: DLD-1
[7] = test system: DMS-114
[8] = test system: DMS-273
[9] = test system: EKVX
[10] = test system: HCC 2998
[11] = test system: HCT-116
[12] = test system: HCT-15
[13] = test system: HL-60
[14] = test system: HOP-18
[15] = test system: HOP-62
[16] = test system: HOP-92
[17] = test system: HT-29
[18] = test system: IGROV-1
[19] = test system: K562
[20] = test system: KM-20L2
[21] = test system: KM12
[22] = test system: LOX IMVI
[23] = test system: M19-MEL
[24] = test system: MCF7
[25] = test system: MOLT-4
[26] = test system: Malme-3M
[27] = test system: NCI-H226
[28] = test system: NCI-H23
[29] = test system: NCI-H460
[30] = test system: NCI-H522
[31] = test system: NCI/ADR-RES
[32] = test system: OVCAR-3
[33] = test system: OVCAR-4
[34] = test system: OVCAR-5
[35] = test system: OVCAR-8
[36] = test system: RPMI-8226
[37] = test system: RXF 393
[38] = test system: SF-268
[39] = test system: SF-295
[40] = test system: SF-539
[41] = test system: SK-MEL-28
[42] = test system: SK-MEL-2
[43] = test system: SK-MEL-5
[44] = test system: SK-OV-3
[45] = test system: SN12C
[46] = test system: SNB-19
[47] = test system: SNB-75
[48] = test system: SNB-78
[49] = test system: SW-620
[50] = test system: U-251
[51] = test system: UACC-257
[52] = test system: UACC-62
[53] = test system: UO-31
[54] = test system: XF498

CCNCCCCNCC
GI50 [1]: > 3750 µM (inactive)
GI50 [2]: > 3750 µM (inactive)
GI50 [3]: > 3750 µM (inactive)
GI50 [4]: 1600 µM (inactive)
GI50 [5]: > 3750 µM (inactive)
GI50 [6]: > 3750 µM (inactive)
GI50 [7]: > 3600 µM (inactive)
GI50 [8]: > 2550 µM (inactive)
GI50 [9]: > 3750 µM (inactive)
GI50 [10]: > 2670 µM (inactive)
GI50 [11]: > 2480 µM (inactive)
GI50 [12]: > 3750 µM
GI50 [13]: 736 µM (inactive)
GI50 [14]: > 37.5 µM (inactive)
GI50 [15]: > 3750 µM (inactive)
GI50 [16]: > 3750 µM (inactive)
GI50 [17]: > 3750 µM (inactive)
GI50 [18]: > 3750 µM (inactive)
GI50 [19]: > 3750 µM (inactive)
GI50 [20]: > 2090 µM (inactive)
GI50 [21]: > 3750 µM (inactive)
GI50 [22]: > 3750 µM (inactive)
GI50 [23]: > 2930 µM (inactive)
GI50 [24]: > 3750 µM (inactive)
GI50 [25]: 1390 µM (inactive)
GI50 [26]: > 3750 µM (inactive)
GI50 [27]: 2420 µM (inactive)
GI50 [28]: > 3750 µM (inactive)
GI50 [29]: 525 µM (inactive)
GI50 [30]: > 3240 µM (inactive)
GI50 [31]: > 3750 µM (inactive)
GI50 [32]: > 3750 µM (inactive)
GI50 [33]: > 3750 µM (inactive)
GI50 [34]: > 3750 µM (inactive)
GI50 [35]: > 3750 µM (inactive)
GI50 [36]: > 3750 µM (inactive)
GI50 [37]: > 3260 µM (inactive)
GI50 [38]: > 2990 µM (inactive)
GI50 [39]: > 3750 µM (inactive)
GI50 [40]: > 3750 µM (inactive)
GI50 [41]: > 3750 µM (inactive)
GI50 [42]: > 3750 µM (inactive)
GI50 [43]: > 3750 µM (inactive)
GI50 [44]: > 3750 µM (inactive)
GI50 [45]: > 2330 µM (inactive)
GI50 [46]: > 3750 µM (inactive)
GI50 [47]: > 3750 µM (inactive)
GI50 [48]: > 3750 µM (inactive)
GI50 [49]: > 3750 µM (inactive)
GI50 [50]: > 3230 µM (inactive)
GI50 [51]: > 3750 µM (inactive)
GI50 [52]: 2750 µM (inactive)
GI50 [53]: > 1230 µM (inactive)
GI50 [54]: > 3750 µM (inactive)

[N-]=[N+]=CC(=O)CCC(NC(=O)C(CCC(=O)C=[N+]=[N-])NC(=O)CCC(N)C(=O)O)C(=O)O (stereo not drawn)
GI50 [1]: > 100 µM (inactive)
GI50 [2]: > 100 µM (inactive)
GI50 [3]: > 100 µM (inactive)
GI50 [4]: > 100 µM (inactive)
GI50 [5]: > 100 µM (inactive)
GI50 [6]: > 100 µM (inactive)
GI50 [7]: > 100 µM (inactive)
GI50 [8]: > 100 µM (inactive)
GI50 [9]: > 100 µM (inactive)
GI50 [10]: > 100 µM (inactive)
GI50 [11]: > 100 µM (inactive)
GI50 [12]: > 100 µM
GI50 [13]: > 100 µM (inactive)
GI50 [14]: > 100 µM (inactive)
GI50 [15]: > 100 µM (inactive)
GI50 [16]: > 100 µM (inactive)
GI50 [17]: > 100 µM (inactive)
GI50 [18]: > 100 µM (inactive)
GI50 [19]: > 100 µM (inactive)
GI50 [20]: > 100 µM (inactive)
GI50 [21]: 31.6 µM (inactive)
GI50 [22]: > 100 µM (inactive)
GI50 [23]: > 100 µM (inactive)
GI50 [24]: > 100 µM (inactive)
GI50 [25]: > 100 µM (inactive)
GI50 [26]: > 100 µM (inactive)
GI50 [27]: > 100 µM (inactive)
GI50 [28]: > 100 µM (inactive)
GI50 [29]: > 100 µM (inactive)
GI50 [30]: > 100 µM (inactive)
GI50 [31]: > 100 µM (inactive)
GI50 [32]: > 100 µM (inactive)
GI50 [33]: > 100 µM (inactive)
GI50 [34]: > 100 µM (inactive)
GI50 [35]: > 100 µM (inactive)
GI50 [36]: > 100 µM (inactive)
GI50 [37]: > 100 µM (inactive)
GI50 [38]: > 100 µM (inactive)
GI50 [39]: > 100 µM (inactive)
GI50 [40]: > 100 µM (inactive)
GI50 [41]: > 100 µM (inactive)
GI50 [42]: > 100 µM (inactive)
GI50 [43]: > 100 µM (inactive)
GI50 [44]: > 100 µM (inactive)
GI50 [45]: > 100 µM (inactive)
GI50 [46]: > 100 µM (inactive)
GI50 [47]: > 100 µM (inactive)
GI50 [48]: > 100 µM (inactive)
GI50 [49]: > 100 µM (inactive)
GI50 [50]: > 100 µM (inactive)
GI50 [51]: > 100 µM (inactive)
GI50 [52]: > 100 µM (inactive)
GI50 [53]: > 100 µM (inactive)
GI50 [54]: > 100 µM (inactive)

— ChEMBL document CHEMBL1201862, “PubChem BioAssay data set” (2004)
